The values that follow come from US20180346446A1, “IRE1 SMALL MOLECULE INHIBITORS” (QUENTIS THERAPEUTICS, INC., priority 2017, published 2018).

This experiment addresses IRE1a (Homo sapiens, UniProt O75460). The experiment can be described thus: In vitro FRET assay (XBP1 RNA probe cleavage by IRE1a). The format is biochemical. Also on record: purchased SignalChem. To be noted: 2 nM IRE1a protein. The method, then:
In vitro FRET assay was performed to evaluate the ability of select compounds to inhibit IRE1, the results of which are summarized in Table 3. To perform the in vitro FRET assay, 1× complete assay buffer (CAB; […], 50 mM sodium citrate pH 7.15, ImM magnesium acetate, 0.02% tween 20) was used to dilute SignalChem IRE1a protein to a final concentration of 2 nM. Selected compounds were serially diluted with DMSO in a non-binding black 384-well plate for a total of 15 ul in each well. 2 ul of the serially diluted compound or DMSO control were then added to new wells containing 98 ul of 1×CAB, for a total volume of 100 ul, 10 ul of which were then transferred to wells of a new plate. 5 ul of the diluted IRE1a was then added to each well. 5 ul of a […] XBP1 RNA probe was then added to each well. Fluorescence was then read over 30 minutes in kinetic mode (485/515 nm).
Two RNA probes were used, XBP1 wildtype (SEQ ID NO: 2) which is able to be spliced by active IRE1a or XBP1 mutant (SEQ ID NO: 3) which is unable to be spliced. Each probe contained a 5′ 6-FAM modification and a 3′ IOWA Black FQ modification. […]

SMILES strings stand for the structures.

IRE1a, sequence (O75460 19-977): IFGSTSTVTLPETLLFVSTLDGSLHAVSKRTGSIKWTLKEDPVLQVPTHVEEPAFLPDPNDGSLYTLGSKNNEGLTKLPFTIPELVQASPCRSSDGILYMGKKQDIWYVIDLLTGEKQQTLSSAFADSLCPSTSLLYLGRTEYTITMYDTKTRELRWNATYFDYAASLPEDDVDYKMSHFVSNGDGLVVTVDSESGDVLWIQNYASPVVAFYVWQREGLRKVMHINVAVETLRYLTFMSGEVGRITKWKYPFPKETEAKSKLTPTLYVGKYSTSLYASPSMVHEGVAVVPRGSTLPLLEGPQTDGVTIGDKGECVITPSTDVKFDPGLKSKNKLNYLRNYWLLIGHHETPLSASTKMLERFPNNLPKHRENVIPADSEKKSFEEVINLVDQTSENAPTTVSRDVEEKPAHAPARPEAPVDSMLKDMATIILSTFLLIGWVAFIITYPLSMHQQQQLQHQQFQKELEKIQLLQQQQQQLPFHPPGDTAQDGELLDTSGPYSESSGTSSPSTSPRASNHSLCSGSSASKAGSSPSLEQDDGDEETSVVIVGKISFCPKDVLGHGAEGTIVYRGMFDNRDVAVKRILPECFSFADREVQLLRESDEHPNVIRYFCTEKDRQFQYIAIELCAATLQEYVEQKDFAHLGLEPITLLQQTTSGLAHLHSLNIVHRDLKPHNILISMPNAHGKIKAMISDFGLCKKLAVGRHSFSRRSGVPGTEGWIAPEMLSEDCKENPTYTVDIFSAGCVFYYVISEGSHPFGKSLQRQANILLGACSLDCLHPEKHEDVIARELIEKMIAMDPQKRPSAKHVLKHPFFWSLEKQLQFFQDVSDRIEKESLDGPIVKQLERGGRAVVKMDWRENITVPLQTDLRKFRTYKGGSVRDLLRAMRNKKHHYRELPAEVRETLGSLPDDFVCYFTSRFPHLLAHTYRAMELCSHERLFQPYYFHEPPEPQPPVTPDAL

Consider `CCc1cc(-c2ccc(NS(=O)(=O)c3ccccc3Cl)cc2C(F)(F)F)cc2cnc(N[C@H]3CC[C@H](N)CC3)nc12` [14; Formic Acid], for which the IC50 is above 100 nM.

Regarding `CCc1cc(-c2ccc(NS(=O)(=O)c3ccccc3)cc2C)cc2cnc(N[C@H]3CC[C@H](N)CC3)nc12` [15; Formic Acid], the IC50 is above 100 nM.

`CCc1cc(-c2ccc(NS(=O)(=O)c3ccccc3Cl)cc2Cl)cc2cnc(N[C@H]3CC[C@H](N)CC3)nc12` [17; Formic Acid]: the IC50 was above 100 nM.

For `Cc1cc(N(C)S(=O)(=O)c2ccccc2Cl)ccc1-c1cc(O)c2nc(N[C@H]3CC[C@H](N)CC3)ncc2c1` [30; Formic Acid], the IC50 lay within 50 to 100 nM.

Take `CCc1cc(-c2ccc(N(C)S(=O)(=O)c3ccccc3Cl)cc2C)cc2cnc(N[C@H]3CC[C@H](N)CC3)nc12` [31; Formic Acid]: the half-maximal inhibitory concentration (IC50) was above 100 nM.

`COc1cc(-c2ccc(NS(=O)(=O)c3ccccc3Cl)cc2C)cc2cnc(N[C@H]3CC[C@H](N)CC3)nc12` [36; Formic Acid] returned a 50% inhibitory concentration (IC50) of at most 5 nM.

For the molecule `CCc1cc(-c2sc(NS(=O)(=O)c3ccccc3Cl)nc2C)cc2cnc(N[C@H]3CC[C@H](N)CC3)nc12` [38; Formic Acid], the IC50 was at most 5 nM.

In turn, `CCc1cc(-c2cnc(NS(=O)(=O)c3ccccc3Cl)nc2)cc2cnc(N[C@H]3CC[C@H](N)CC3)nc12` [39; Formic Acid] showed an IC50 of at most 5 nM.

Molecule `CC(C)c1cc(-c2cc(NS(=O)(=O)c3ccccc3Cl)nn2C)cc2cnc(N[C@H]3CC[C@H](N)CC3)nc12` [40; Formic Acid] gave a half-inhibitory concentration (IC50) of at most 5 nM.

Molecule `CCc1cc(-c2cnc(NS(=O)(=O)c3ccccc3Cl)s2)cc2cnc(N[C@H]3CC[C@H](N)CC3)nc12` [41; Formic Acid] came in with an IC50 of at most 5 nM.

`CCc1cc(-c2cc(F)c(NS(=O)(=O)c3ccccc3Cl)cc2OC)cc2cnc(N[C@H]3CC[C@H](N)CC3)nc12` [42; Formic Acid] showed an IC50 of at most 5 nM.

For `CCc1cc(-n2cc(NS(=O)(=O)c3ccccc3Cl)cn2)cc2cnc(N[C@H]3CC[C@H](N)CC3)nc12` [43; Formic Acid], the IC50 is at most 5 nM.

Take `COc1cc(-c2cc(NS(=O)(=O)c3ccccc3Cl)nn2C)cc2cnc(N[C@H]3CC[C@H](N)CC3)nc12` [45; Formic Acid]: the IC50 is 50 to 100 nM.

The molecule `N[C@H]1CC[C@H](Nc2ncc3cc(-c4ccc(NS(=O)(=O)c5ccccc5Cl)nn4)ccc3n2)CC1` [49; Formic Acid] had an IC50 of at most 5 nM.

The molecule `N[C@H]1CC[C@H](Nc2ncc3cc(-c4ccc(NS(=O)(=O)c5ccccc5Cl)c(F)c4)ccc3n2)CC1` [50; Formic Acid] yielded an IC50 of at most 5 nM.

Molecule `CCc1cc(-c2cc(F)c(NS(=O)(=O)c3ccccc3Cl)c(F)c2)cc2cnc(N[C@H]3CC[C@H](N)CC3)nc12` [63; Formic Acid] gave a 50% inhibitory concentration (IC50) of at most 5 nM.

`CCc1cc(NS(=O)(=O)c2ccccc2Cl)nnc1-c1cc(CC)c2nc(N[C@H]3CC[C@H](N)CC3)ncc2c1` [96; Formic Acid] registered a half-maximal inhibitory concentration (IC50) of at most 5 nM.

As for `CCc1cc(-c2ccc(NS(=O)(=O)c3ccccc3Cl)nc2OC)cc2cnc(N[C@H]3CC[C@H](O)CC3)nc12` [101; Formic Acid], the IC50 lay in the range of 5 to 50 nM.

`CCc1nc(NS(=O)(=O)c2ccccc2Cl)ccc1-c1cc2cnc(N[C@H]3CC[C@H](N)CC3)nc2cc1C` [105; Formic Acid] registered a concentration for half-maximal inhibition (IC50) of at most 5 nM.

In turn, `Cc1cc2nc(N[C@H]3CC[C@H](N)CC3)ncc2cc1-c1ccc(NS(=O)(=O)c2ccccc2Cl)nc1C` [106; Formic Acid] registered an IC50 of at most 5 nM.

As to `COc1nc(NS(=O)(=O)c2ccccc2Cl)ccc1-c1ccc2nc(N[C@H]3CC[C@H](N)CC3)ncc2c1C` [114; Formic Acid], the IC50 was 5 to 50 nM.

For the molecule `CCc1cc(-c2ccc(NS(=O)(=O)c3ccccc3Cl)nc2OC)cc2cnc(N[C@H]3CC[C@@H](N)CC3)nc12` [140; Formic Acid], the IC50 was at most 5 nM.

On to `CCc1cc(-c2ccc(NS(=O)(=O)c3ccccc3Cl)nc2OC)cc2cnc(NC3CCC(C)(N(C)C)CC3)nc12` (stereo not shown) [143; Formic Acid], for which the IC50 lay in the range of 5 to 50 nM.

In turn, `CCc1cc(-c2cc(F)c(NS(=O)(=O)c3ccccc3Cl)nc2OC)cc2cnc(N[C@H]3CC[C@@](C)(N(C)C)CC3)nc12` [144; Formic Acid] had an IC50 of 50 to 100 nM.

As for `COc1nc(NS(=O)(=O)c2ccccc2Cl)c(F)cc1-c1cc(C)c2nc(N[C@H]3CC[C@@H](N)CC3)ncc2c1` [146; Formic Acid], the 50% inhibitory concentration (IC50) is at most 5 nM.

For `CCc1cc(-c2ccc(NS(=O)(=O)c3ccccc3C(F)(F)F)cc2C)cc2cnc(N[C@H]3CC[C@H](N)CC3)nc12` [Compound 7, N-(4-(2-(((1r,4r)-4-aminocyclohexyl)amino)-8-ethylquinazolin-6-yl)-3-methylphenyl)-2-(trifluoromethyl)benzenesulfonamide], the IC50 lay in the range of 5 to 50 nM.

`CCc1cc(-c2ccc(NS(=O)(=O)c3ccccc3OC(F)(F)F)cc2C)cc2cnc(N[C@H]3CC[C@H](N)CC3)nc12` [Compound 8, N-(4-(2-(((1r,4r)-4-aminocyclohexyl)amino)-8-ethylquinazolin-6-yl)-3-methylphenyl)-2-(trifluoromethoxy)benzenesulfonamide] had an IC50 of 5 to 50 nM.

In turn, `CCc1cc(-c2ccc(NS(=O)(=O)c3cc(Cl)ccc3Cl)cc2C)cc2cnc(N[C@H]3CC[C@H](N)CC3)nc12` [Compound 9, N-(4-(2-(((1r,4r)-4-aminocyclohexyl)amino)-8-ethylquinazolin-6-yl)-3-methylphenyl)-2,5-dichlorobenzenesulfonamide] had an IC50 of at most 5 nM.

`CCc1cc(-c2ccc(NS(=O)(=O)c3ccccc3F)cc2C)cc2cnc(N[C@H]3CC[C@H](N)CC3)nc12` [Compound 10, N-(4-(2-(((1r,4r)-4-aminocyclohexyl)amino)-8-ethylquinazolin-6-yl)-3-methylphenyl)-2-fluorobenzenesulfonamide] came in with an IC50 of at most 5 nM.

Molecule `CCc1cc(-c2ccc(NS(=O)(=O)c3ccc(Cl)cc3)cc2C)cc2cnc(N[C@H]3CC[C@H](N)CC3)nc12` [Compound 12] displayed an IC50 above 100 nM.

`CCc1cc(-c2ccc(NS(=O)(=O)c3ccccc3OC)cc2C)cc2cnc(N[C@H]3CC[C@H](N)CC3)nc12` [Compound 13] returned a concentration for half-maximal inhibition (IC50) above 100 nM.

In general, IC50 refers to the point on the concentration scale where inhibition reaches its midpoint. Low values mean greater potency in that assay, high ones weaker potency in that assay.
